Results: patent publication US20160083424A1, “COMPOSITIONS AND METHODS FOR TARGETING ANTIGEN-PRESENTING CELLS” (OSLO UNIVERSITETSSYKEHUS HF, priority 2013, published 2016)

Experiments:
Parameters in all cases: species or system human
iDCs [1] = test: Phage binding by flow cytometry; conditions: binding of the phage clones to iDC, flow cytometry
Experimental: (§1) In brief, aliquots of DCs (10^5) were divided into conical 96-well micro-plate, washed with PBS buffer containing 1% FCS, and then incubated with the amplified phages (≈10^9 TU) for 30-60 min on ice. After washing, cells were incubated with biotinylated anti-M13 monoclonal antibody (Abcam) and then with phycoerythrin (PE)-conjugated streptavidin. Competition assays were performed by pre-incubating DCs with different amounts of the peptides for 15 min on ice. Then NW phage (≈10^9 TU) was added and samples incubated for additional 60 min on ice. After washing, bound phages were detected as indicated above. Samples were analyzed by FACSCanto II flow cytometry.

iDCs [2] = test: Peptide binding by flow cytometry
Experimental: The cells were seeded onto 24-well plate (3×10^5/well/0.5 ml) in X-vivo 15 medium and incubated overnight at 37° C. Subsequently, they were incubated with 6IAF-conjugated peptides (5 μg/ml) for 30 min at 37° C., gently scraped, washed 3 times and then analyzed by flow cytometry. Binding was also performed at 4° C.

iDC = test: Competition of NW phage binding by synthetic peptides
Experimental: as §1
To further investigate the importance of the NW peptide on phage binding, competition experiments were performed using synthetic peptides.

Monocytes = test: Competition of NW phage binding by NW peptide and its mutant peptides
Experimental: as §1
To uncover the contribution of individual side chains and identify which amino acids are responsible for the NW peptide binding to monocytes and dendritic cells, alanine scanning was performed. Derivatives of the NW peptide were synthesized with exchange of each amino acid by alanine (FIG. 11A). These peptide derivatives were used to compete with the NW phage binding to monocytes. For each peptide, four concentrations were tested. Bound phage particles were detected with the use of biotin conjugated anti-M13 antibody and PE-conjugated streptavidin. The NW peptide (WT) competed effectively with the phage binding to monocytes with an IC50 of approximately 0.5 uM. The replacement of tryptophan (W) at position 2, 6, or 12 by a single alanine abolished the binding. Indeed, no significant competition with the phage binding was seen even at high peptide concentrations (C4=20 uM). Similarly, replacement of leucine (L) at position 4 or 7 by alanine inhibited the peptide binding (FIG. 11B).

Substance	Binding (iDCs [1])	inhibition of the phage binding to iDC by synthetic peptides (iDC)	also measured
SPGLSLVSHMQT [DC13]	+++ (binding <80%: +++)		
GALDTTHHRPWTC [control peptide, irrelevant control peptide, reference compound]		but not an irrelevant control peptide, effectively inhibited	binding of 6-IAF-conjugated peptides to iDCs (iDCs [2]; 4° C. and 37° C.): no significant binding
GETRAPL [DC19]	+++ (binding <80%: +++)		
NWYLPWLGTNDWAGILARNLVPMVATVQGQNLC [NW-33-mer, CMV pp65 peptide fused to NW peptide]			binding of 6IAF-conjugated pp65 fusion peptides to DCs (iDCs [2]; iDCs): bound to iDCs
Deletion of N10D11: NW peptide with N10 and D11 deleted; likely NWYLPWLGTW (SEQ ID NO:38)			reduction in IC50 relative to NW peptide (Monocytes; monocytes): approximately 20 fold; competition with NW phage binding / peptide binding to monocytes (Monocytes; mutant peptides, four concentrations (0.4, 2, 8, 20 μM)): reduced the binding
NWYGAGAGTNDW [NW-mutant, NW-peptide lacking the motif LPWL]		failed to reduce binding	
